Laboratory results taken from patent US6479435B1, “Diaryl ethers and processes for their preparation and herbicidal and desiccant compositions containing them” (ISK Americas Incorporated, priority 1997, dated 2002).

Key:
Type in all cases: in vivo
[1] = system: velvetleaf (Abutilon theophrasti, ABUTH); assay: Post-emerge greenhouse herbicide test, phytotoxicity rating; conditions: Abutilon theophrasti, post-emergence, 336 h, 14 days after application, scale 0-100; for pest or weed control at 63 g/ha: rate 63 g ai/ha; for pest or weed control at 500 g/ha: rate 500 g ai/ha
Procedure, shortened: (§1)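 Compounds in acetone with 0.25% v/v non-ionic surfactant were track-sprayed at 187 l/ha over plants at the 2-3 leaf stage, at 63 to 1000 g ai/ha. Pots were bottom-watered. Injury was scored visually 14 days later on a 0-100 scale, where 0 is no damage and 100 is complete plant death.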

[2] = system: lambsquarters (Chenopodium album, CHEAL); assay: as above; conditions: Chenopodium album, post-emergence, 336 h, 14 days after application, scale 0-100; for pest or weed control at 63 g/ha: rate 63 g ai/ha; for pest or weed control at 500 g/ha: rate 500 g ai/ha
Procedure, shortened: as §1

[3] = system: green foxtail (Setaria viridis, SETVI); assay: as above; conditions: Setaria viridis, post-emergence, 336 h, 14 days after application, scale 0-100; for pest or weed control at 63 g/ha: rate 63 g ai/ha; for pest or weed control at 500 g/ha: rate 500 g ai/ha
Procedure, shortened: as §1

[4] = system: large crabgrass (Digitaria sanguinalis, DIGSA); assay: as above; conditions: Digitaria sanguinalis, post-emergence, 336 h, 14 days after application, scale 0-100; for pest or weed control at 63 g/ha: rate 63 g ai/ha; for pest or weed control at 500 g/ha: rate 500 g ai/ha
Procedure, shortened: as §1

[5] = system: redroot pigweed (Amaranthus retroflexus, AMARE); assay: as above; conditions: Amaranthus retroflexus, post-emergence, 336 h, 14 days after application, scale 0-100; for pest or weed control at 63 g/ha: rate 63 g ai/ha; for pest or weed control at 500 g/ha: rate 500 g ai/ha
Procedure, shortened: as §1

[6] = system: ivyleaf morningglory (Ipomoea hederacea, IPOHE); assay: as above; conditions: Ipomoea, post-emergence, 336 h, 14 days after application, scale 0-100; for pest or weed control at 63 g/ha: rate 63 g ai/ha; for pest or weed control at 500 g/ha: rate 500 g ai/ha
Procedure, shortened: as §1

[7] = system: Johnsongrass (Sorghum halepense, SORHA); assay: as above; conditions: Sorghum halepense, post-emergence, 336 h, 14 days after application, scale 0-100; for pest or weed control at 63 g/ha: rate 63 g ai/ha; for pest or weed control at 500 g/ha: rate 500 g ai/ha
Procedure, shortened: as §1

[8] = system: barnyardgrass (Echinochloa crusgalli, ECHCG); assay: as above; conditions: Echinochloa crus-galli, post-emergence, 336 h, 14 days after application, scale 0-100; for pest or weed control at 63 g/ha: rate 63 g ai/ha; for pest or weed control at 500 g/ha: rate 500 g ai/ha
Procedure, shortened: as §1

[9] = system: sicklepod (Cassia obtusifolia, CASOB); assay: as above; conditions: Senna obtusifolia, post-emergence, 336 h, 14 days after application, scale 0-100; for pest or weed control at 63 g/ha: rate 63 g ai/ha; for pest or weed control at 500 g/ha: rate 500 g ai/ha
Procedure, shortened: as §1

[10] = system: velvetleaf (Abutilon theophrasti, ABUTH); assay: Pre-emerge greenhouse herbicide test, phytotoxicity rating; conditions: Abutilon theophrasti, pre-emergence, 336 h, 14 days after application, rating scale 0-100; for pest or weed control at 125 g/ha: Rate 125 g al/ha; for pest or weed control at 500 g/ha: Rate 500 g al/ha
Procedure, shortened: (§2)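 Seeds sown in sandy loam mix one day before track-sprayer application of compounds in acetone at 125–1000 g ai/ha (187 l/ha), then surface-watered to incorporate and bottom-watered. Visual rating 14 days after application on a 0–100 scale (0 = no damage, 100 = all plants dead).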

[11] = system: lambsquarters (Chenopodium album, CHEAL); assay: as above; conditions: Chenopodium album, pre-emergence, 336 h, 14 days after application, rating scale 0-100; for pest or weed control at 125 g/ha: Rate 125 g al/ha; for pest or weed control at 500 g/ha: Rate 500 g al/ha
Procedure, shortened: as §2

[12] = system: large crabgrass (Digitaria sanguinalis, DIGSA); assay: as above; conditions: Digitaria sanguinalis, pre-emergence, 336 h, 14 days after application, rating scale 0-100; for pest or weed control at 125 g/ha: Rate 125 g al/ha; for pest or weed control at 500 g/ha: Rate 500 g al/ha
Procedure, shortened: as §2

[13] = system: redroot pigweed (Amaranthus retroflexus, AMARE); assay: as above; conditions: Amaranthus retroflexus, pre-emergence, 336 h, 14 days after application, rating scale 0-100; for pest or weed control at 125 g/ha: Rate 125 g al/ha; for pest or weed control at 500 g/ha: Rate 500 g al/ha
Procedure, shortened: as §2

[14] = system: ivyleaf morningglory (Ipomoea hederacea, IPOHE); assay: as above; conditions: Ipomoea, pre-emergence, 336 h, 14 days after application, rating scale 0-100; for pest or weed control at 125 g/ha: Rate 125 g al/ha; for pest or weed control at 500 g/ha: Rate 500 g al/ha
Procedure, shortened: as §2

[15] = system: sicklepod (Cassia obtusifolia, CASOB); assay: as above; conditions: Senna obtusifolia, pre-emergence, 336 h, 14 days after application, rating scale 0-100; for pest or weed control at 125 g/ha: Rate 125 g al/ha; for pest or weed control at 500 g/ha: Rate 500 g al/ha
Procedure, shortened: as §2

Row | SMILES | pest or weed control at 63 g/ha [1] | pest or weed control at 500 g/ha [1] | pest or weed control at 63 g/ha [2] | pest or weed control at 500 g/ha [2] | pest or weed control at 63 g/ha [3] | pest or weed control at 500 g/ha [3] | pest or weed control at 63 g/ha [4] | pest or weed control at 500 g/ha [4] | pest or weed control at 63 g/ha [5] | pest or weed control at 500 g/ha [5] | pest or weed control at 63 g/ha [6] | pest or weed control at 500 g/ha [6] | pest or weed control at 63 g/ha [7] | pest or weed control at 500 g/ha [7] | pest or weed control at 63 g/ha [8] | pest or weed control at 500 g/ha [8] | pest or weed control at 63 g/ha [9] | pest or weed control at 500 g/ha [9] | pest or weed control at 125 g/ha [10] | pest or weed control at 500 g/ha [10] | also measured
1 | Nn1c(C(F)(F)F)cc(=O)n(-c2cc(Oc3cc(C(F)(F)F)ccn3)c(Cl)cc2F)c1=O [Compound 9-8, 1-Amino-3-[4-chloro-2-fluoro-5-(4-trifluoromethyl-2-pyridyloxy)phenyl]-6-trifluoromethyl-1,2,3,4-tetrahydropyrimidine-2,4-dione] | 100% | 100% | 95% | 100% | 30% | 75% | 10% | 30% | 100% | 100% | 95% | 100% | 30% | 90% | 10% | 95% | 30% | 30% | 100% | 100% | pest or weed control at 125 g/ha [11]: 100%; pest or weed control at 500 g/ha [11]: 100%; pest or weed control at 125 g/ha [12]: 20%; pest or weed control at 500 g/ha [12]: 100%; pest or weed control at 125 g/ha [13]: 100%; pest or weed control at 500 g/ha [13]: 100%; pest or weed control at 125 g/ha [14]: 95%; pest or weed control at 500 g/ha [14]: 100%; pest or weed control at 125 g/ha [15]: 80%; pest or weed control at 500 g/ha [15]: 90%
2 | N#Cc1cccnc1Oc1cc(-n2c(=O)cc(C(F)(F)F)n(N)c2=O)c(F)cc1Cl [Compound 9-9, 1-Amino-3-[4-chloro-2-fluoro-5-(3-cyano-2-pyridyloxy)phenyl]-6-trifluoromethyl-1,2,3,4-tetrahydropyrimidine-2,4-dione] | 100% | 100% | 90% | 100% | 20% | 90% | 10% | 90% | 100% | 100% | 90% | 100% | 40% | 100% | 10% | 100% | 90% | 100% | 100% | 100% | pest or weed control at 125 g/ha [11]: 100%; pest or weed control at 500 g/ha [11]: 100%; pest or weed control at 125 g/ha [12]: 100%; pest or weed control at 500 g/ha [12]: 100%; pest or weed control at 125 g/ha [13]: 100%; pest or weed control at 500 g/ha [13]: 100%; pest or weed control at 125 g/ha [14]: 100%; pest or weed control at 500 g/ha [14]: 100%; pest or weed control at 125 g/ha [15]: 100%; pest or weed control at 500 g/ha [15]: 100%
